In US8796325B2, “Metronidazole esters for treating rosacea” (Galderma Research & Development, priority 2010, dated 2014):
Entries after “also recorded” stand apart in the source; their conditions may differ.

Columns and labels:
[1] = Stability evaluated on keratinocyte cultures; type: in vitro ADME; conditions: human, human neonatal keratinocyte cultures; keratinocyte cultures; 2 μM in medium CNT-057 with 0.1% pluronic acid, 0.1% DMSO; degradation kinetics over 24 hours; LC/MS/MS; read-out: half-life time (t1/2) (converted)
Description: (§1) The stability on keratinocyte cultures is evaluated using human neonatal keratinocytes (Cell'N Tech) cultured in a 75 cm^2 flask and detached at 90-100% of confluence with vegetable trypsin (trypLE GIBCO). The compound of formula (I) was tested at 2 μM in the medium CNT-057 (Cell'N Tech) supplemented with 0.1% pluronic acid in 24-well plates. The final DMSO concentration is 0.1%. Degradation kinetics are performed with a Tecan EVO robot over 24 hours. The samples taken are then assayed by LC/MS/MS (Micromass) in comparison with a calibration range of the test product, prepared under the same conditions as the samples (⅓ culture medium and ⅔ methanol). The chromatographic conditions are optimized for each product. An assay of the appearance of metronidazole is also performed using these same samples.

[2] = tested on: human neonatal keratinocytes; assay: Stability evaluated on keratinocyte cultures; type: in vitro ADME; conditions: over 24 hours
Description: as §1

half-life at 2 μM [1]	melting point	Compound	stability / hydrolysis of the ester on keratinocyte cultures (in words) [2]
8 h	122 to 124 °C	Cc1ncc([N+](=O)[O-])n1CCOC(=O)Cc1ccccc1Nc1c(Cl)cccc1Cl [compound of formula (I), 2-(2-methyl-5-nitroimidazol-1-yl)ethyl [2-(2,6-dichlorophenylamino)phenyl]acetate]	specifically cleaved in keratinocytes
–	–	Cc1ncc([N+](=O)[O-])n1CCOC(=O)c1cc(-c2ccc(F)cc2F)ccc1O [metronidazole ester with diflunisal]	stable in the presence of keratinocytes; also recorded: do not become hydrolysed
–	–	COc1ccc2c(c1)c(CC(=O)OCCn1c([N+](=O)[O-])cnc1C)c(C)n2C(=O)c1ccc(Cl)cc1 [metronidazole ester with indomethacin]	stable in the presence of keratinocytes; also recorded: do not become hydrolysed
–	–	Cc1ncc([N+](=O)[O-])n1CCOC(=O)C1CCn2c(C(=O)c3ccccc3)ccc21 (stereo not shown) [metronidazole ester with ketorolac]	stable in the presence of keratinocytes; also recorded: do not become hydrolysed
–	–	Cc1ncc([N+](=O)[O-])n1CCOC(=O)c1cccnc1Nc1cccc(C(F)(F)F)c1 [metronidazole ester with niflumic acid]	stable in the presence of keratinocytes; also recorded: do not become hydrolysed
